We go through 15 compounds from US8309556B2, “Use of compounds derived from pyrimidinetrione as acetyl cholinesterase inhibitors, compositions containing said derivatives, and the uses thereof” (priority 2005, dated 2012).

In assay [1] the test system is G119S-mutated recombinant Culex pipiens AChE1. Description: biochemical. The settings on record: IC50 normal AChE1 relative to mutated AChE1, recombinant. As for the experimental part: (§1) The inhibitory properties of the compounds of the preceding table I are tested with regard to the AChE activity by either using a normal or G119S-mutated recombinant AChE or using extracts of larvae of mosquitoes which are sensitive (carrying normal AChE) or resistant (carrying G119S-mutated AChE) to organophosphorus compounds and carbamates.
(§2) The AChE activity is measured using the method described by Bourguet et al., Pest Biochem. Physiol., 1996, 55, 122-128, and which refers to the spectroscopic method described by Ellman G. L. et al. (Biochem. Pharmacol., 1961, 7, 88-95) using acetylthiocholine as substrate.
(§3) The inhibitory properties of the compounds according to the invention with regard to the activity of a G119S-mutated or normal recombinant Culex pipiens AChE1 are tested according to protocol described by Weill et al., Nature, 2003, 423, 136-137.
(§4) Each compound according to the invention is tested at different concentrations on lysates of Drosophile S2 cells transfected with an empty expression vector or an expression vector expressing normal or mutated AChE1. After expression, the cells are centrifuged for 15 minutes at 14 000 rpm and are subsequently lysed in a 0.25 M phosphate buffer comprising 1% Triton X100.
(§5) 100 μl of supernatant originating from the centrifuging of the cell lysates at 10 000 rpm for 3 minutes are incubated for 15 minutes with 10 μl of each compound according to the invention at various concentrations.
(§6) The effectiveness of the various compounds with regard to the mutated AChE activity, relative to that of the normal AChE, is estimated by the sensitive/insensitive ratio.

The target in assay [2] is T1, G119S-mutated recombinant Culex pipiens AChE1 (Culex pipiens, UniProt Q86GC8, G247S).
T1 construct: made in house; host or cells: Drosophila S2 cells (crude lysate supernatant)
Briefly: biochemical. As for the experimental part: as §1, §2, §3, §4, §5, §6

The target in assay [3] is T2, AChE1 activity of extracts of Culex pipiens larvae resistant to propoxur (G119S-mutated AChE) (Culex pipiens, UniProt Q86GC8, G247S).
T2 construct: from tissue; host or cells: whole larvae of propoxur-resistant Culex pipiens, Triton X100 homogenate supernatant
Description: biochemical. As for the experimental part:
as §1, §2
(§7) Larvae of Culex pipiens mosquitoes which are sensitive or resistant to propoxur are milled in 400 μl of 0.25M phosphate buffer comprising 1% Triton X100. The homogenates are centrifuged at 10 000 rpm for 3 minutes.
(§8) The effectiveness of the various compounds with regard to the resistant larvae, relative to the sensitive larvae, is estimated by the sensitive/resistant ratio.

In assay [4] the test system is AChE1 activity of extracts of Culex pipiens larvae resistant to propoxur (G119S-mutated AChE). Briefly: biochemical. Conditions: IC50 on larval extracts, sensitive relative to resistant. As to the method: as §1, §2, §7, §8
In assay [5] the test system is larvae of mosquitoes Culex pipiens sensitive to propoxur. Description: Insecticidal activity: larval mortality, propoxur-sensitive larvae. It counts as in vivo. Conditions: stage-4 larvae, mortality after 24 hours, log-Probit, read-out: LD50, Sensitive larvae. As to the method:
(§9) The insecticidal activity of the compounds according to the invention denoted in table IV below is tested on larvae of mosquitoes Culex pipiens sensitive or resistant to the action of propoxur.
(§10) The larvae resistant or sensitive to propoxur are incubated in 24-well plates, at the rate of 15 stage-4 larvae per well, in 1 ml of tap water comprising different concentrations of compounds ranging from 0.31 to 50 μg/ml.
(§11) Larval mortality is measured after incubating for 24 hours. […] Cahiers ORSTOM, série Entomologie médicale et Parasitologie, 23(2), 117-121; Raymond, M., Prato, G. and Ratsira, D. (1993). PROBIT, CNRS-UMII, Licence L93019. Avenix, 34680 St. Georges d'Orques, France.), the homogeneity of the dose/response being tested. The effectiveness of the different compounds with regard to the resistant larvae, relative to the sensitive larvae, is estimated by the sensitive/resistant ratio.

Assay [6] has as its target T3, normal recombinant Culex pipiens AChE1 (Culex pipiens, UniProt Q86GC8).
T3 construct: made in house; host or cells: Drosophila S2 cells (crude lysate supernatant)
Description: Inhibition of normal recombinant AChE1 (lysates of transfected Drosophile S2 cells, Ellman method). The class given is biochemical. As to the method: as §1, §2, §3, §4, §5, §6

The target of assay [7] is T4, AChE1 activity of extracts of Culex pipiens larvae sensitive to propoxur (normal AChE) (Culex pipiens, UniProt Q86GC8).
T4 construct: from tissue; host or cells: whole larvae of propoxur-sensitive Culex pipiens, Triton X100 homogenate supernatant
Description: Inhibition of AChE1 activity in extracts of propoxur-sensitive mosquito larvae. The class given is biochemical. The settings on record: extracts of propoxur-sensitive larvae, 15 minutes incubation; read-out: IC50, Sensitive larvae. As for the experimental part:
as §1, §2, §7, §8

Assay [8] has as its system larvae of mosquitoes Culex pipiens resistant to propoxur. Description: Insecticidal activity: larval mortality, propoxur-resistant larvae. The class given is in vivo. Conditions: for LC50: Culex pipiens, stage-4 larvae, mortality after 24 hours, log-Probit, read-out: LD50, Resistant larvae; for Sensitive/resistant ratio: LD50 larval mortality, sensitive relative to resistant. As to the method:
as §9, §10, §11

With `Cc1ccc(C=C2C(=O)NC(=O)N(c3ccccc3)C2=O)o1` [(1), 5-[(5-methyl-2-furyl)methylene]-1-phenyl-2,4,6(1H,3H,5H)-pyrimidinetrione], in assay [1], the Sensitive/insensitive ratio stood at 1.47. The concentration for half-maximal inhibition (IC50) in assay [2] amounted to 23 µM; in assay [3] it was 6.2 µM; in assay [6], 34 µM; in assay [7], 29.4 µM. The Sensitive/resistant ratio in assay [4] was 4.7; in assay [8], 2.2. Moreover, the LC50 came out at 310 µM in assay [5] and 143 µM in assay [8].
Consider `Cc1cccc(N2C(=O)NC(=O)C(=Cc3ccc(C)s3)C2=O)c1` [(2), 1-(3-methylphenyl)-5-[(5-methyl-2-thienyl)methylene]-2,4,6(1H,3H,5H)-pyrimidinetrione], for which, in assay [1], the Sensitive/insensitive ratio was 0.90. Further, the half-inhibitory concentration (IC50) came to 43 µM in assay [2], 28 µM in assay [3], 39 µM in assay [6] and 442 µM in assay [7]. Also, the Sensitive/resistant ratio in assay [4] turned out to be 15.5; in assay [8], 2.7. The LC50 in assay [5] was found to be 455 µM; in assay [8], 170 µM.
For the compound `Cc1ccc(C=C2C(=O)NC(=O)N(c3ccc(C(C)C)cc3)C2=O)o1` [(7), 1-(4-isopropylphenyl)-5-[(5-methyl-2-furyl)methylene]-2,4,6(1H,3H,5H)-pyrimidinetrione], in assay [1], the Sensitive/insensitive ratio is listed as 1.78. Moreover, the IC50 in assay [2] was found to be 72 µM; in assay [3], 21 µM; in assay [6], 128 µM; in assay [7], 132 µM. Moreover, the Sensitive/resistant ratio in assay [4] came to 6.1.
With `O=C1NC(=O)N(c2ccccc2)C(=O)C1=Cc1ccco1` [(9), 5-(2-furylmethylene)-1-phenyl-2,4,6(1H,3H,5H)-pyrimidinetrione], the Sensitive/insensitive ratio in assay [1] was determined as 1.89. Also, the IC50 in assay [2] is 737 µM; in assay [6], 1390 µM.
The matching figures for `CN1C(=O)C(=Cc2ccco2)C(=O)N(C)C1=O` [(10), 5-(2-furylmethylene)-1,3-dimethyl-2,4,6(1H,3H,5H)-pyrimidinetrione]: 3.34, 357 µM and 1190 µM.
For `Cc1ccc(N2C(=O)NC(=O)C(=Cc3ccc(C)o3)C2=O)cc1` [(11), 5-[(5-methyl-2-furyl)methylene]-1-(4-methylphenyl)-2,4,6(1H,3H,5H)-pyrimidinetrione], the Sensitive/insensitive ratio in assay [1] is reported as 1.27. Moreover, the IC50 in assay [2] is 3.5 µM; in assay [3], 14 µM; in assay [6], 4.5 µM; in assay [7], 111 µM. The Sensitive/resistant ratio in assay [4] was 7.7.
Regarding `COc1cccc(N2C(=O)NC(=O)C(=Cc3ccc(C)o3)C2=O)c1` [(12), 1-(3-methoxyphenyl)-5-[(5-methyl-2-furyl)methylene]-2,4,6(1H,3H,5H)-pyrimidinetrione], the Sensitive/insensitive ratio in assay [1] came to 0.96. Also, the half-inhibitory concentration (IC50) turned out to be 3.5 µM in assay [2], 6 µM in assay [3], 3.4 µM in assay [6] and 54 µM in assay [7]. In assay [4], the Sensitive/resistant ratio is recorded as 8.5.
As to `CCOc1ccc(N2C(=O)NC(=O)C(=Cc3ccc(C)o3)C2=O)cc1` [(13), 1-(4-ethoxyphenyl)-5-[(5-methyl-2-furyl)methylene]-2,4,6(1H,3H,5H)-pyrimidinetrione], in assay [1], the Sensitive/insensitive ratio stood at 2.40. In addition, the IC50 came to 2.9 µM in assay [2], 89 µM in assay [3], 7.1 µM in assay [6] and 236 µM in assay [7]. Further, in assay [4], the Sensitive/resistant ratio came out at 2.7.
For the compound `Cc1ccc(C=C2C(=O)NC(=O)N(c3ccc(Br)cc3)C2=O)s1` [(14), 1-(4-bromophenyl)-5-[(5-methyl-2-thienyl)methylene]-2,4,6(1H,3H,5H)-pyrimidinetrione], the Sensitive/insensitive ratio in assay [1] came to 0.87. Moreover, the IC50 in assay [2] was determined as 11.1 µM; in assay [3] it was 142 µM; in assay [6] it was 9.6 µM; in assay [7] it was 2120 µM. Moreover, the Sensitive/resistant ratio in assay [4] was found to be 15.0.
Consider `Cc1ccc(C=C2C(=O)NC(=O)N(c3ccc(Cl)cc3)C2=O)s1` [(15), 1-(4-chlorophenyl)-5-[(5-methyl-2-thienyl)methylene]-2,4,6(1H,3H,5H)-pyrimidinetrione], for which, in assay [1], the Sensitive/insensitive ratio was 1.00. Further, the concentration for half-maximal inhibition (IC50) in assay [2] worked out at 8.7 µM; in assay [3], 177 µM; in assay [6], 8.7 µM; in assay [7] it was 1220 µM. Further, in assay [4], the Sensitive/resistant ratio is given as 6.9.
For the compound `Cc1ccc(C=C2C(=O)NC(=O)N(c3ccc(F)cc3)C2=O)s1` [(16), 1-(4-fluorophenyl)-5-[(5-methyl-2-thienyl)methylene]-2,4,6(1H,3H,5H)-pyrimidinetrione], in assay [1], the Sensitive/insensitive ratio is 1.99. Besides, the IC50 in assay [2] came to 8.6 µM; in assay [3], 22 µM; in assay [6] it was 17.1 µM; in assay [7] it was 490 µM. Further, the Sensitive/resistant ratio in assay [4] amounted to 22.5.
On to `Cc1ccc(C=C2C(=O)NC(=O)N(c3ccc(C)c(C)c3)C2=O)o1` [(17), 1-(3,4-dimethylphenyl)-5-[(5-methyl-2-furyl)methylene]-2,4,6(1H,3H,5H)-pyrimidinetrione], for which the Sensitive/insensitive ratio in assay [1] turned out to be 1.85. Moreover, the IC50 in assay [2] was determined as 8.5 µM; in assay [3], 35 µM; in assay [6], 15.7 µM; in assay [7] it was 424 µM. In addition, in assay [4], the Sensitive/resistant ratio amounted to 12.2.
With `Cc1ccc(C=C2C(=O)NC(=O)N(Cc3ccco3)C2=O)o1` [(18), 1-(2-furylmethyl)-5-[(5-methyl-2-furyl)methylene]-2,4,6(1H,3H,5H)-pyrimidinetrione], in assay [1], the Sensitive/insensitive ratio came out at 2.10. Besides, the 50% inhibitory concentration (IC50) stood at 4.8 µM in assay [2], 37 µM in assay [3], 10.1 µM in assay [6] and 260 µM in assay [7]. In addition, the Sensitive/resistant ratio in assay [4] was 7.1.
With `CCc1ccc(N2C(=O)NC(=O)C(=Cc3ccc(C)o3)C2=O)cc1` [(19), 1-(4-ethylphenyl)-5-[(5-methyl-2-furyl)methylene]-2,4,6(1H,3H,5H)-pyrimidinetrione], the Sensitive/insensitive ratio in assay [1] was 0.58. Moreover, the IC50 in assay [2] was determined as 3.4 µM; in assay [3], 19 µM; in assay [6], 1.9 µM; in assay [7], 312 µM. In addition, in assay [4], the Sensitive/resistant ratio came to 16.7.
Regarding `CCCCN1C(=O)NC(=O)C(=Cc2ccc(C)s2)C1=O` [(20), 1-butyl-5-[(5-methyl-2-thienyl)methylene]-2,4,6(1H,3H,5H)-pyrimidinetrione], the Sensitive/insensitive ratio in assay [1] is listed as 0.78. The half-maximal inhibitory concentration (IC50) in assay [2] stood at 15.5 µM; in assay [3], 152 µM; in assay [6] it was 12.1 µM; in assay [7], 153 µM. Also, the Sensitive/resistant ratio in assay [4] is reported as 1.0.
